This passage reports melting point and IC50 results from patent publication US8501746B2, “Organic compounds” (Xenon Pharmaceuticals Inc., priority 2006, dated 2013).

In general, melting point refers to the temperature, or range, at which the solid turns liquid. What is called IC50 is the point on the concentration scale where inhibition reaches its midpoint. Read a low IC50 as greater potency in that assay.

Series [1] has as its target T1, stearoyl-CoA desaturase (SCD1) (Mus musculus, UniProt P13516).
T1 construct: Reactions are started by adding 50 μL of microsomes (1.25 mg/mL); from tissue; host or cells: liver microsomes of male ICR outbred mice on a high-carbohydrate, low-fat diet
T1 sequence (P13516 1-355): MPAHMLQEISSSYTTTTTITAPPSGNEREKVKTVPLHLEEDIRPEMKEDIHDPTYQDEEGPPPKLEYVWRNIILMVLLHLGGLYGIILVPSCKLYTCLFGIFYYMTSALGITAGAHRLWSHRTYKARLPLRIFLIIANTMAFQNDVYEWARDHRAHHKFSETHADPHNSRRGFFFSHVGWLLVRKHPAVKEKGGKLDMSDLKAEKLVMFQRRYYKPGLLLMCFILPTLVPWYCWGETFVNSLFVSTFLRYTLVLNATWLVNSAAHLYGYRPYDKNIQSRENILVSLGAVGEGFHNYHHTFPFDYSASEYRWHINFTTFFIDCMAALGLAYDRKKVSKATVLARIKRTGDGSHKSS
The series is described as follows: SCD microsomal assay: release of 3H2O from [9,10-3H]stearoyl-CoA in mouse liver microsomes. The class given is biochemical. Particulars: 15 min incubation, 25° C. The protocol: Measuring Stearoyl-CoA Desaturase Inhibition Activity of a Test Compound Using Mouse Liver Microsomes
Livers are immediately rinsed with cold 0.9% NaCl solution, weighed and minced with scissors. All procedures are performed at 4° C. unless specified otherwise. Livers are homogenized in a solution (1/3 w/v) containing 0.25 M sucrose, 62 mM potassium phosphate buffer (pH 7.0), 0.15 M KCl, 15 mM N-acetylcysteine, 5 mM MgCl2, and 0.1 mM EDTA using 4 strokes of a Potter-Elvehjem tissue homogenizer. The homogenate is centrifuged at 10,400×g for 20 min to eliminate mitochondria and cellular debris. The supernatant is filtered through a 3-layer cheesecloth and centrifuged at 105,000×g for 60 min. The microsomal pellet is gently resuspended in the same homogenization solution with a small glass/teflon homogenizer and stored at −70° C. The absence of mitochondrial contamination is enzymatically assessed. The protein concentration is measured using bovine serum albumin as the standard.
Incubation of Mouse Liver Microsomes with Test Compounds:
Desaturase activity is measured as the release of ^3H2O from [9,10-^3H]stearoyl-CoA. Reactions per assay point conditions are as follows: 2 μL 1.5 mM stearoyl-CoA, 0.25 μL 1 mCi/mL ^3H stearoyl CoA, 10 μL 20 mM NADH, 36.75 μL 0.1 M PK buffer (K2HPO4/NaH2PO4, pH 7.2). The test compound or control solution is added in a 1 μL volume. […] The plates are mixed and after 15 min incubation on a heating block (25° C.), the reactions are stopped by the addition of 10 μL 60% PCA. An aliquot of 100 μL is then transferred to a filter plate pretreated with charcoal and the plate centrifuged at 4000 rpm for 1 minute. The flow through containing the ^3H2O released by the SCD1 desaturation reaction is added to scintillation fluid and the radioactivity measured in a Packard TopCount. The data is analysed to identify the IC50 for test compounds and reference compounds.
The activity was defined in terms of % SCD enzyme activity remaining at the desired concentration of the test compound or as the IC50 concentration.
For orientation: Liver microsomes are vesicles of endoplasmic reticulum, rich in cytochrome P450 enzymes.

Structures are written as SMILES.

Compound `Cc1nc(-n2ccc(OCC3CC3)cc2=O)sc1C(=O)NCc1ccccc1` [Example 1.1, N-Benzyl-2-(4-(cyclopropylmethoxy)-2-oxopyridin-1(2H)-yl)-4-methylthiazole-5-carboxamide] yielded a melting point of 218 to 220 °C. The IC50 in series [1] worked out at 400 nM.
Turning to `COc1ccn(-c2nc(C)c(C(=O)NCc3ccccc3)s2)c(=O)c1` [Example 1.2, N-Benzyl-2-(4-methoxy-2-oxopyridin-1(2H)-yl)-4-methylthiazole-5-carboxamide], the melting point was in the range of 205 to 208 °C. Moreover, the concentration for half-maximal inhibition (IC50) in series [1] worked out at 90 nM.
For `Cc1nc(-n2cccc(C(F)(F)F)c2=O)sc1C(=O)NCc1ccccc1` [Example 3.5, N-Benzyl-4-methyl-2-(2-oxo-3-(trifluoromethyl)pyridin-1(2H)-yl)thiazole-5-carboxamide], the melting point lay in the range of 203 to 204 °C. Besides, in series [1], the IC50 worked out at 150 nM.
`Cc1nc(-n2ccc3c(O)cccc3c2=O)sc1C(=O)NCc1ccccc1` [Example 7.1, N-Benzyl-2-(5-hydroxy-1-oxoisoquinolin-2(1H)-yl)-4-methylthiazole-5-carboxamide] registered a melting point of 218 to 221 °C. The same compound returned a concentration for half-maximal inhibition (IC50) in series [1] of 30 nM.
As for `Cc1nc(-n2ccc(OCc3ccccc3)cc2=O)sc1C(=O)NCc1ccc(Cl)nc1` [Example 22.19, 2-(4-(Benzyloxy)-2-oxopyridin-1(2H)-yl)-N-((6-chloropyridin-3-yl)methyl)-4-methylthiazole-5-carboxamide], the half-inhibitory concentration (IC50) in series [1] worked out at 50 nM. In other words, the double-digit nanomolar range.
Still for that read-out and setting: to `Cc1nc(-n2ccc(OCc3c(C)noc3C)cc2=O)sc1C(=O)NCc1ccccc1` [Example 21.13, N-benzyl-2-(4-((3,5-dimethylisoxazol-4-yl)methoxy)-2-oxopyridin-1(2H)-yl)-4-methylthiazole-5-carboxamide] belongs 180 nM.
With `Cc1nc(-n2ccccc2=O)sc1C(=O)NCc1ccc(F)cc1` [Example 3.11, N-(4-Fluorobenzyl)-4-methyl-2-(2-oxopyridin-1(2H)-yl)thiazole-5-carboxamide], the melting point lay in the range of 170 to 172 °C. In series [1], this compound had a half-maximal inhibitory concentration (IC50) of 230 nM.
As for `Cc1nc(-n2ccc(O)cc2=O)sc1C(=O)NCc1ncco1` [Example 1.22, 2-(4-Hydroxy-2-oxopyridin-1(2H)-yl)-4-methyl-N-(oxazol-2-ylmethyl)thiazole-5-carboxamide], in series [1], the IC50 was found to be 430 nM. This counts as sub-micromolar.
Compound `Cc1cc(-n2ccc(OCc3ccccc3)cc2=O)oc1C(=O)NCc1ccccc1` [Example 3.19, N-Benzyl-5-(4-(benzyloxy)-2-oxopyridin-1(2H)-yl)-3-methylfuran-2-carboxamide] gave a melting point of 191 to 192 °C. This compound also yielded a concentration for half-maximal inhibition (IC50) in series [1] of 5700 nM.
For the compound `Cc1ccn(-c2nc(C)c(C(=O)NCc3ccccc3)s2)c(=O)c1` [Example 20, N-Benzyl-4-methyl-2-(4-methyl-2-oxopyridin-1(2H)-yl)thiazole-5-carboxamide], the melting point fell in the range of 145 to 147 °C.
Regarding `Cc1nc(-n2ccc(OCCC3CC3)cc2=O)sc1C(=O)NCc1ccccc1` [Example 1.3, N-Benzyl-2-(4-(2-cyclopropylethoxy)-2-oxopyridin-1(2H)-yl)-4-methylthiazole-5-carboxamide], the melting point lay within 172 to 174 °C.
`CCNC(=O)c1sc(-n2ccc(O)cc2=O)cc1C` [Example 7.9, N-Ethyl-5-(4-hydroxy-2-oxopyridin-1(2H)-yl)-3-methylthiophene-2-carboxamide] came in with a melting point of 183 to 184 °C.
Consider `Cc1cc(-n2ccc(O)cc2=O)sc1C(=O)NCc1cccnc1` [Example 7.6, 5-(4-Hydroxy-2-oxopyridin-1(2H)-yl)-3-methyl-N-(pyridin-3-ylmethyl)thiophene-2-carboxamide], for which the melting point is 110 °C (dec.). Besides, half-maximal inhibition in series [1] (IC50) required 800 nM.
`Cc1nc(-n2ccc(OCC3CCCC3)cc2=O)sc1C(=O)NCc1ccccc1` [Example 9.10, N-Benzyl-2-(4-(cyclopentylmethoxy)-2-oxopyridin-1(2H)-yl)-4-methylthiazole-5-carboxamide] showed a melting point of 196 to 198 °C.
`Cc1nc(-n2ccc(OCc3ccccc3)cc2=O)[nH]c1C(=O)NCc1ccccc1` [Example 1.7, N-Benzyl-2-(4-(benzyloxy)-2-oxopyridin-1(2H)-yl)-4-methyl-1H-imidazole-5-carboxamide] yielded a melting point of 183 to 184 °C. In series [1], this compound showed a concentration for half-maximal inhibition (IC50) of 220 nM.
On to `Cc1cc(-n2ccc(O)cc2=O)sc1C(=O)NCc1ccc(F)cc1` [Example 7.7, N-(4-Fluorobenzyl)-5-(4-hydroxy-2-oxopyridin-1(2H)-yl)-3-methylthiophene-2-carboxamide], for which the melting point is 95 °C (dec.).
Turning to `Cc1nc(-n2ccc(O)cc2=O)sc1C(=O)NCc1ccc(F)c(F)c1` [Example 1.19, N-(3,4-Difluorobenzyl)-2-(4-hydroxy-2-oxopyridin-1(2H)-yl)-4-methylthiazole-5-carboxamide], the melting point lay in the range of 294 to 296 °C.
On the same count and under the same terms, to `Cc1nc(-n2ccnc(C)c2=O)sc1C(=O)NCc1ccccc1` [Example 3.1, N-Benzyl-4-methyl-2-(3-methyl-2-oxopyrazin-1(2H)-yl)thiazole-5-carboxamide] belongs 186 to 187 °C.
Take `Cc1nc(-n2ccc(NCc3ccccc3)cc2=O)sc1C(=O)NCc1ccccc1` [Example 5, N-benzyl-2-(4-(benzylamino)-2-oxopyridin-1(2H)-yl)-4-methylthiazole-5-carboxamide]: the melting point lay in the range of 253 to 255 °C.
Compound `Cc1cc(-n2ccc(OCc3ccccc3)cc2=O)sc1C(=O)NCc1ccccc1` [Example 8.1, N-Benzyl-5-(4-(benzyloxy)-2-oxopyridin-1(2H)-yl)-3-methylthiophene-2-carboxamide] returned a melting point of 153 to 154 °C.
Compound `Cc1nc(-n2ccc(N)cc2=O)sc1C(=O)NCc1ccccc1` [Example 3, 2-(4-Amino-2-oxopyridin-1(2H)-yl)-N-benzyl-4-methylthiazole-5-carboxamide] yielded a melting point of 171 to 172 °C.
On the same count and under the same terms, to `Cc1nc(-n2ccc(OCc3ccc(F)cc3)cc2=O)sc1C(=O)NCc1ccc(F)cc1` [Example 1.14, N-(4-Fluorobenzyl)-2-(4-(4-fluorobenzyloxy)-2-oxopyridin-1(2H)-yl)-4-methylthiazole-5-carboxamide] belongs 249 to 251 °C.
